Source: PubChem BioAssay (NCI)
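Tested at 5 concentrations; 48 h exposure; 96-well plates; endpoints linearly interpolated, else capped at highest concentration. GI50 = concentration required for 50% inhibition of growth. The concentration for full growth arrest is given as TGI.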 Where a SMILES comes first, the peptide text is derived from it. [ ]: non-standard residue; d: D form. The star is where a group is joined. dTle = CC(C)(C)[C@@H](N)C(=O)O; 4Abz = Nc1ccc(C(=O)O)cc1; NHOH = ON*

Legend:
Assay in all cases: NCI-60 cell line screen, 48 h
NCI-H226 lung = tested on: NCI-H226 lung
NCI/ADR-RES ovarian = tested on: NCI/ADR-RES ovarian
SNB-19 CNS = tested on: SNB-19 CNS
LOX IMVI melanoma = tested on: LOX IMVI melanoma
COLO 205 colon = tested on: COLO 205 colon
OVCAR-4 ovarian = tested on: OVCAR-4 ovarian
HOP-62 NSCLC = tested on: HOP-62 NSCLC
NCI-H522 lung = tested on: NCI-H522 lung
EKVX NSCLC = tested on: EKVX NSCLC
BT-549 breast = tested on: BT-549 breast
SK-MEL-2 melanoma = tested on: SK-MEL-2 melanoma
SNB-75 CNS = tested on: SNB-75 CNS
KM12 colon = tested on: KM12 colon
SK-MEL-28 melanoma = tested on: SK-MEL-28 melanoma
SW-620 colon = tested on: SW-620 colon
SN12C renal = tested on: SN12C renal
SF-295 CNS = tested on: SF-295 CNS
CAKI-1 renal = tested on: CAKI-1 renal
MOLT-4 leukemia = tested on: MOLT-4 leukemia
SK-MEL-5 melanoma = tested on: SK-MEL-5 melanoma
U251 CNS = tested on: U251 CNS
SF-268 CNS = tested on: SF-268 CNS
A498 renal = tested on: A498 renal
A549 NSCLC = tested on: A549 NSCLC
SK-OV-3 ovarian = tested on: SK-OV-3 ovarian
HCC-2998 colon = tested on: HCC-2998 colon
SF-539 CNS = tested on: SF-539 CNS
MCF7 breast = tested on: MCF7 breast
OVCAR-3 ovarian = tested on: OVCAR-3 ovarian
786-0 renal = tested on: 786-0 renal
MDA-MB-435 = tested on: MDA-MB-435
IGROV1 ovarian = tested on: IGROV1 ovarian
MDA-MB-231 breast = tested on: MDA-MB-231 breast
M14 melanoma = tested on: M14 melanoma
DU-145 prostate = tested on: DU-145 prostate
K-562 leukemia = tested on: K-562 leukemia
UACC-62 melanoma = tested on: UACC-62 melanoma
PC-3 prostate = tested on: PC-3 prostate
HS 578T breast = tested on: HS 578T breast
HCT-116 colon = tested on: HCT-116 colon
OVCAR-5 ovarian = tested on: OVCAR-5 ovarian
MALME-3M melanoma = tested on: MALME-3M melanoma
TK-10 renal = tested on: TK-10 renal
T-47D breast = tested on: T-47D breast
HT29 colon = tested on: HT29 colon
HOP-92 NSCLC = tested on: HOP-92 NSCLC
OVCAR-8 ovarian = tested on: OVCAR-8 ovarian
NCI-H460 lung = tested on: NCI-H460 lung
UO-31 renal = tested on: UO-31 renal
ACHN renal = tested on: ACHN renal
UACC-257 melanoma = tested on: UACC-257 melanoma
HCT-15 colon = tested on: HCT-15 colon
NCI-H23 lung = tested on: NCI-H23 lung

C[C@@H](NC(=O)[C@H](NC(=O)[C@@H]1CCCN1C(=O)CNC(=O)c1ccc(N)cc1)C(C)(C)C)C(=O)NO (H-[4Abz]GP[dTle][dA]-{NHOH})
GI50 (NCI-H226 lung): > 100 µM
TGI (NCI-H226 lung): > 100 µM
GI50 (NCI/ADR-RES ovarian): > 100 µM
TGI (NCI/ADR-RES ovarian): > 100 µM
GI50 (SNB-19 CNS): > 100 µM
TGI (SNB-19 CNS): > 100 µM
GI50 (LOX IMVI melanoma): > 100 µM
TGI (LOX IMVI melanoma): > 100 µM
GI50 (COLO 205 colon): > 100 µM
TGI (COLO 205 colon): > 100 µM
GI50 (OVCAR-4 ovarian): > 100 µM
TGI (OVCAR-4 ovarian): > 100 µM
GI50 (HOP-62 NSCLC): > 100 µM
TGI (HOP-62 NSCLC): > 100 µM
GI50 (NCI-H522 lung): > 100 µM
TGI (NCI-H522 lung): > 100 µM
GI50 (EKVX NSCLC): > 100 µM
TGI (EKVX NSCLC): > 100 µM
GI50 (BT-549 breast): > 100 µM
TGI (BT-549 breast): > 100 µM
GI50 (SK-MEL-2 melanoma): > 100 µM
TGI (SK-MEL-2 melanoma): > 100 µM
GI50 (SNB-75 CNS): > 100 µM
TGI (SNB-75 CNS): > 100 µM
GI50 (KM12 colon): > 100 µM
TGI (KM12 colon): > 100 µM
GI50 (SK-MEL-28 melanoma): > 100 µM
TGI (SK-MEL-28 melanoma): > 100 µM
GI50 (SW-620 colon): > 100 µM
TGI (SW-620 colon): > 100 µM
GI50 (SN12C renal): > 100 µM
TGI (SN12C renal): > 100 µM
GI50 (SF-295 CNS): > 100 µM
TGI (SF-295 CNS): > 100 µM
GI50 (CAKI-1 renal): > 100 µM
TGI (CAKI-1 renal): > 100 µM
GI50 (MOLT-4 leukemia): > 100 µM
TGI (MOLT-4 leukemia): > 100 µM
GI50 (SK-MEL-5 melanoma): > 100 µM
TGI (SK-MEL-5 melanoma): > 100 µM
GI50 (U251 CNS): > 100 µM
TGI (U251 CNS): > 100 µM
GI50 (SF-268 CNS): > 100 µM
TGI (SF-268 CNS): > 100 µM
GI50 (A498 renal): > 100 µM
TGI (A498 renal): > 100 µM
GI50 (A549 NSCLC): > 100 µM
TGI (A549 NSCLC): > 100 µM
GI50 (SK-OV-3 ovarian): > 100 µM
TGI (SK-OV-3 ovarian): > 100 µM
GI50 (HCC-2998 colon): > 100 µM
TGI (HCC-2998 colon): > 100 µM
GI50 (SF-539 CNS): > 100 µM
TGI (SF-539 CNS): > 100 µM
GI50 (MCF7 breast): > 100 µM
TGI (MCF7 breast): > 100 µM
GI50 (OVCAR-3 ovarian): > 100 µM
TGI (OVCAR-3 ovarian): > 100 µM
GI50 (786-0 renal): > 100 µM
TGI (786-0 renal): > 100 µM
GI50 (MDA-MB-435): > 100 µM
TGI (MDA-MB-435): > 100 µM
GI50 (IGROV1 ovarian): > 100 µM
TGI (IGROV1 ovarian): > 100 µM
GI50 (MDA-MB-231 breast): > 100 µM
TGI (MDA-MB-231 breast): > 100 µM
GI50 (M14 melanoma): > 100 µM
TGI (M14 melanoma): > 100 µM
GI50 (DU-145 prostate): > 100 µM
TGI (DU-145 prostate): > 100 µM
GI50 (K-562 leukemia): > 100 µM
TGI (K-562 leukemia): > 100 µM
GI50 (UACC-62 melanoma): > 100 µM
TGI (UACC-62 melanoma): > 100 µM
GI50 (PC-3 prostate): > 100 µM
TGI (PC-3 prostate): > 100 µM
GI50 (HS 578T breast): > 100 µM
TGI (HS 578T breast): > 100 µM
GI50 (HCT-116 colon): > 100 µM
TGI (HCT-116 colon): > 100 µM
GI50 (OVCAR-5 ovarian): > 100 µM
TGI (OVCAR-5 ovarian): > 100 µM
GI50 (MALME-3M melanoma): > 100 µM
TGI (MALME-3M melanoma): > 100 µM
GI50 (TK-10 renal): > 100 µM
TGI (TK-10 renal): > 100 µM
GI50 (T-47D breast): > 100 µM
TGI (T-47D breast): > 100 µM
GI50 (HT29 colon): > 100 µM
TGI (HT29 colon): > 100 µM
GI50 (HOP-92 NSCLC): 5.76 µM
TGI (HOP-92 NSCLC): > 100 µM
GI50 (OVCAR-8 ovarian): > 100 µM
TGI (OVCAR-8 ovarian): > 100 µM
GI50 (NCI-H460 lung): > 100 µM
TGI (NCI-H460 lung): > 100 µM
GI50 (UO-31 renal): > 100 µM
TGI (UO-31 renal): > 100 µM
GI50 (ACHN renal): > 100 µM
TGI (ACHN renal): > 100 µM
GI50 (UACC-257 melanoma): > 100 µM
TGI (UACC-257 melanoma): > 100 µM
GI50 (HCT-15 colon): > 100 µM
TGI (HCT-15 colon): > 100 µM
GI50 (NCI-H23 lung): > 100 µM
TGI (NCI-H23 lung): > 100 µM
